Data from patent US20230058623A1, “NOVEL HETEROARYL-TRIAZOLE COMPOUNDS AS PESTICIDES” (Bayer Aktiengesellschaft, priority 2019, published 2023).
Where two headings read alike, the source gives them in different places.

Columns and labels:
Format in all cases: in vivo
[1] = system: fall armyworm larvae (Spodoptera frugiperda); test: Spodoptera frugiperda spray test; settings: 168 h, application rate 100 g/ha, after 7 days, maize leaf sections
In short: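 Maize leaf sections sprayed with compound diluted in water with 1000 ppm emulsifier, then infested with larvae once dry. Mortality (%) scored after 7 days; 100% = all caterpillars killed.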

[2] = system: adult engorged female ticks (Rhipicephalus microplus); test: Rhipicephalus (Boophilus) microplus injection test; settings: 168 h, read-out: activity (efficacy: infertile eggs)
In short: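 Five adult engorged female ticks injected into the abdomen with 1 μL compound solution in DMSO, then held in a climate chamber. Fertile egg deposition assessed after 7 days, unclear eggs kept until hatching (about 42 days); efficacy 100% = all eggs infertile, 0% = all fertile.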

[3] = system: adult unfed cat fleas (Ctenocephalides felis); test: Ctenocephalides felis oral test; settings: 48 h, read-out: activity (mortality)
Method: Ctenocephalides felis—Oral Test
Solvent: dimethyl sulfoxide
To produce a suitable preparation of active compound, 10 mg of active compound are dissolved in 0.5 mL solvent, and the concentrate is diluted with citrated cattle blood to the desired concentration.
Approximately 20 adult unfed cat fleas (Ctenocephalides felis) are placed in a flea chamber whose top and bottom is covered with gauze. A chamber whose bottom is sealed with parafilm, is filled with the blood-compound solution and placed on top of the flea chamber, so that the fleas can suck the blood. The blood chamber is heated to 37° C. whereas the flea chamber is kept at room temperature.
After 2 days mortality in % is determined. 100% means all the fleas have been killed; 0% means none of the fleas have been killed.

[4] = system: Rhipicephalus (Boophilus) microplus larvae (strain Parkhurst, resistant against synthetic pyrethroids); test: Rhipicephalus (Boophilus) microplus in-vitro contact test, larval cattle tick; settings: read-out: activity (efficacy: larvae dead or moribund)
In short: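 Acetone solutions were coated onto glass tube walls, giving 5 μg/cm^2 at 900 ppm. Once dry, 20–50 pyrethroid-resistant Parkhurst larvae were added per tube and held 48 h at 27 °C and 85% RH. Efficacy was scored by negative geotaxis as the percentage of dead or moribund larvae.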

[5] = system: larvae of the banded cucumber beetle (Diabrotica balteata); test: Diabrotica balteata spray test; settings: 168 h, application rate 100 g/ha (=32 μg/well), after 7 days, wheat seeds, read-out: activity (efficacy: seedlings grown)
In short: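 Wheat seeds germinated 1 day on agar were sprayed with compound diluted in water with 1000 ppm emulsifier, then infested with 10-20 Diabrotica balteata larvae. Efficacy in % scored after 7 days: 100% = seedlings grown as untreated, uninfected control; 0% = no seedlings grown.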

[6] = system: adult cat fleas (Ctenocephalides felis); test: Ctenocephalides felis in-vitro contact test, adult cat flea; settings: application rate 5 μg/cm^2 (=500 g/ha), after 48 hours, read-out: activity (efficacy: fleas dead or moribund)
In short: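 Acetone solutions of compound were coated onto inner walls of glass tubes (900 ppm giving 5 μg/cm^2) and dried; 5-10 adult C. felis were then held 48 h at room temperature. Efficacy = % fleas dead or moribund, judged by inability to escape a 45-50° C heating plate within 5 min.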

[7] = system: green peach aphid (Myzus persicae); test: Myzus persicae oral test; settings: 120 h, read-out: activity (mortality)
In short: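 Compound was dissolved at 1 part by weight in 100 parts acetone, then diluted with water to test concentration and combined with IPL41 insect medium (33%+15% sugar). A mixed aphid population fed on this through a parafilm seal, and mortality (%) was scored after 5 days.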

[8] = system: green peach aphid (Myzus persicae); test: Myzus persicae spray test; settings: foliar, 120 h, read-out: activity (mortality)
In short: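 Chinese cabbage leaf disks infested with all aphid instars were sprayed with compound diluted in water containing emulsifier (1000 ppm). Mortality (%) was scored after 5 days, 100% meaning all aphids killed.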

[9] = system: adult brown dog ticks (Rhipicephalus sanguineus); test: Rhipicephalus sanguineus in-vitro contact test, adult brown dog ticks; settings: application rate 5 μg/cm^2 (=500 g/ha), after 48 hours, read-out: activity (efficacy: ticks dead or moribund)
In short: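 Acetone solution (900 ppm giving 5 μg/cm²) coated on inner walls of glass tubes; after drying, 5-10 adult ticks added and held at room temperature 48 h. Ticks then placed on 45-50 °C plate ≤5 min; those unable to climb away scored dead/moribund, efficacy as % affected.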

[10] = system: larvae of the southern green stink bug (Nezara viridula); test: Nezara viridula spray test; settings: in Hordeum vulgare, 96 h, read-out: activity (mortality)
Method: Nezara viridula—Spray Test
To produce a suitable preparation of active compound, 1 part by weight of active compound is mixed with the stated amount of solvent, and the concentrate is diluted with water, containing an emulsifier concentration of 1000 ppm, to the desired concentration. Further test concentrations are prepared by dilution with emulsifier containing water.
Barley plants (Hordeum vulgare) are sprayed with a test solution containing the desired concentration of the active ingredient and are infested with larvae of the southern green stink bug (Nezara viridula).
After 4 days mortality in % is determined. 100% means all the stink bugs have been killed; 0% means none of the stink bugs have been killed.

[11] = application rate 4 μg/tick, egg deposition after 7 days
[12] = application rate 1 μg/cm^2 (=100 g/ha), after 48 hours
[13] = application rate 5 μg/cm^2 (=500 g/ha), after 48 hours

Row | SMILES | mortality at 100 g/ha [1] | pest or weed control at 0.004 mg [2, 11] | mortality at 100 ppm [3] | pest or weed control at 1 µg/cm2, 100 g/ha [4, 12] | pest or weed control at 5 µg/cm2, 500 g/ha [4, 13] | pest or weed control at 32 µg/disc, 100 g/ha [5] | pest or weed control at 5 µg/cm2 [6] | mortality at 4 ppm [7] | mortality at 100 g/ha ([8]; in Brassica rapa) | pest or weed control at 5 µg/cm2, 500 g/ha [9] | pest or weed control at 1 µg/cm2, 100 g/ha ([4]; 48 h) | pest or weed control at 5 µg/cm2, 500 g/ha ([4]; 48 h) | mortality at 500 g/ha [10] | pest or weed control at 0.004 mg [2] | mortality at 100 g/ha ([8]; application rate 100 g/ha, after 5 days, Chinese cabbage leaf disks) | mortality at 20 ppm [7]
1 | CC(NC(=O)c1cc(C(F)(F)F)cc(C(F)(F)F)c1)c1nc(I)nn1-c1ccc(C(=O)N2CCOCC2)cn1 (racemic) [Example I-84, N-[1-[5-iodo-2-[5-(morpholine-4-carbonyl)-2-pyridyl]-1,2,4-triazol-3-yl]ethyl]-3,5-bis(trifluoromethyl)benzamide] | 100% | 100% | 100% | 100% | 100% | 100% | – | – | – | – | – | – | – | – | – | –
2 | C[C@H](NC(=O)c1cc(Cl)cc(C(F)(F)F)c1)c1ncnn1-c1ccc(C(=O)N2CC3CC(C2)O3)cn1 [Example I-41] | – | 100% | 100% | – | – | 100% | 80% | 100% | 90% | 100% | 100% | 100% | – | – | – | –
3 | C[C@H](NC(=O)c1cc(C(F)(F)F)cc(C(F)(F)F)c1)c1ncnn1-c1cc(C(=O)N2CCOCC2)ccn1 [Example I-3] | – | – | 90% | 100% | 100% | – | – | 90% | – | 100% | – | – | – | – | – | –
4 | Cc1nc([C@H](C)NC(=O)c2cc(C(F)(F)F)cc(C(F)(F)F)c2)n(-c2ncc(C(=O)N3CCC3)s2)n1 [Example I-17] | 100% | 100% | 100% | 100% | 100% | – | 80% | 100% | – | – | – | – | – | – | – | –
5 | Cc1nc([C@H](C)NC(=O)c2cc(C(F)(F)F)cc(C(F)(F)F)c2)n(-c2ccc(C(=O)N3CCC[Si](C)(C)C3)cn2)n1 [Example I-93] | – | – | 100% | – | – | – | – | – | – | – | 90% | 90% | 90% | 100% | – | –
6 | Cc1nc([C@H](C)NC(=O)c2cc(OC(F)(F)F)cc(C3CC3)c2)n(-c2ccc(C(=O)N3C[C@@H](C)O[C@H](C)C3)cn2)n1 [Example I-117] | – | 100% | 90% | 90% | 90% | – | 100% | 100% | – | 100% | – | – | – | – | 90% | –
7 | C[C@H](NC(=O)c1cc(Cl)cc(C(F)(F)F)c1)c1ncnn1-c1ccc(N2CC(F)(F)C2)cn1 [Example I-108] | – | – | 100% | – | – | – | – | – | – | – | – | – | – | – | – | –
8 | CC(NC(=O)c1cc(Cl)cc(OC(F)(F)F)c1)c1nc(C(F)F)nn1-c1ccc(C(=O)N2CCOCC2)cn1 (stereo not drawn) [Example I-59] | – | 100% | 100% | – | – | 80% | – | – | – | – | – | – | – | – | – | 100%
